# Source: US6949529B2, “Compositions containing lysophosphotidic acids which inhibit apoptosis and uses thereof” (Sky High, LLC, priority 1997, dated 2005)
# Tested on: rat neonatal cardiomyocytes
# Assay: Cardiomyocyte death induced by ischemia and reperfusion (in vitro model)
# Format: cell-based
# Settings: mixture with PEG (FIG. 14)
# Method: Cardiomyocytes were prepared from hearts of day-old Sprague Dawley rats by trypsinization and mechanical disaggregation (Simpson, (1985)) Circ. Res. 56:884-894. The cells were resuspended in MEM, 1×MEM vitamins (Gibco), 5% fetal bovine serum and 50 U/ml penicillin-G and pre-plated for 30 minutes to reduce contamination of non-myocytes. The non-adherent cardiac myocytes were separated and seeded in 2 ml in 35 mm dishes at a density of 3.5×10^5 viable cells per ml. The cells were allowed to adhere for 16-24 hours in a 37° C./5% CO2 humidified incubator.
# For serum deprivation, the medium was replaced with fresh serum-free RPMI, whereas serum/glucose deprivation was performed using glucose-free RPMI. The induction of cell death by adriamycin or C2-ceramide was accomplished by the addition of the agent prepared in serum-free RPMI. As a model of ischemia, cultures in serum and glucose free RPMI were placed in an airtight chamber and the latter was continuously perfused with oxygen-free gas overlay of 95% N2/5% CO2 for 8 hours at 37° C. […]
# Because cardiomyocytes are terminally differentiated non-dividing cells, viability was determined by measurement of the decrease in the relative number of adherent cells. […] Adherent cardiomyocytes were collected from culture dishes using 0.25% Trypsin/0.05% EDTA and counted on Coulter Counter ZM and Coulter Channelyzer 256.
smiles,measurement,value
"CCCCCCCC/C=C\CCCCCCCC(=O)OCC(O)COP(=O)(O)O (stereo not shown) [18:1 LPA, oleoyl-lysophosphatidic acid]",cardiomyocyte death induced by ischemia and reperfusion,equally protect
